Experimental data reported in ChEMBL document CHEMBL4828719, “H2dpa derivatives containing pentadentate ligands: An acyclic adjuvant potentiates meropenem activity in vitro and in vivo against metallo-β-lactamase-producing Enterobacterales” (Eur J Med Chem, 2021).
≈ marks a conversion by molar mass, not a printed value. Calls of active or inactive are those of the source. The calls are words filed in the database; no cut-off is given here.

Assays:
[1] = Acute toxicity in BALB/c mouse assessed as change in mean corpuscular volume at 50 mg/kg, ip administered as single dose measured after 24 hrs; format: organism-based; conditions: in vivo
[2] = Acute toxicity in BALB/cmouse assessed as change in hematocrit level at 50 mg/kg, ip administered as single dose measured after 24 hrs; format: organism-based, BALB/c; conditions: mouse, in vivo
[3] = tested on: Escherichia coli; experiment: Antibacterial activity against MBL producing Escherichia coli isolates assessed as inhibition of bacterial growth at 64 ug/ml incubated for 16 to 20 hrs by CLSI based microdilution method; format: functional, organism-based; conditions: dose 64.0 µg/ml, time 16-20 hrs
[4] = Zinc chelation-dependent inhibition of VIM-2 (unknown origin) expressed in Escherichia coli DH5 alpha using nitrocefin as substrate preincubated with enzyme for 5 mins followed by substrate addition in presence of zinc sulfate
[5] = tested on: Klebsiella pneumoniae; experiment: Antibiotic adjuvant activity against meropenem-treated NDM-producing carbapenem resistant Klebsiella pneumoniae infected in BALB/c mouse sepsis model assessed as reduction of bacterial load in liver at 10 mg/kg, ip in the presence of meropenem observed for 2 days; format: functional, organism-based; conditions: time 2.0 day
[6] = Non competitive inhibition of VIM-2 (unknown origin) assessed as inhibition of substrate hydrolysis by measuring decrease in Vmax using nitrocefin as substrate preincubated with enzyme for 5 mins followed by substrate addition by Lineweaver-Burk plot analysis
[7] = tested on: Escherichia coli; experiment: Antibacterial activity against IMP-4 producing Escherichia coli DH5 alpha assessed as bacterial growth at 8 ug/ml incubated for 16 to 20 hrs by CLSI based microdilution method; format: functional; conditions: dose 8 µg/ml; time 16-20 hrs
[8] = Zinc chelation-dependent inhibition of NDM-1 (unknown origin) expressed in Escherichia coli DH5 alpha using meropenem as substrate preincubated with enzyme for 5 mins followed by substrate addition in the presence of zinc sulfate
[9] = Acute toxicity in BALB/c mouse assessed as change in albumin level in serum at 50 mg/kg, ip administered as single dose measured after 24 hrs; format: organism-based; conditions: in vivo
[10] = tested on: Klebsiella pneumoniae; experiment: Antibacterial activity against NDM-producing carbapenem resistant Klebsiella pneumoniae infected in BALB/c mouse sepsis model assessed as dilated and congested central vein with neutrophil cell infiltration within the red pulp of the spleen at 10 mg/kg, ip observed for 2 days by HE staining based assay; format: functional, organism-based; conditions: time 2.0 day
[11] = tested on: Escherichia coli; experiment: Antibacterial activity against VIM-1 producing Escherichia coli DH5 alpha assessed as bacterial growth at 8 ug/ml incubated for 16 to 20 hrs by CLSI based microdilution method; format: functional; conditions: dose 8 µg/ml; time 16-20 hrs
[12] = tested on: Escherichia coli; experiment: Synergistic antibacterial activity against IMP-4 producing Escherichia coli DH5alpha assessed as fractional inhibitory concentration index incubated for 16 to 20 hrs in presence of meropenem by checkerboard assay; format: functional, DH5[alpha]; conditions: time 16-20 hrs
[13] = Toxicity in sheep RBC assessed as induction of hemolysis at 1024 microg/ml measured after 1 hr relative to control; format: tissue-based, Ovis aries, Erythrocyte; conditions: sheep red blood cells, at 1024 µg/mL, read-out: Activity
[14] = tested on: Escherichia coli; experiment: Antibiotic adjuvant activity against meropenem-treated VIM-1 producing Escherichia coli DH5 alpha assessed as bacterial growth at 8 ug/ml incubated for 16 to 20 hrs in the presence of meropenem and 100 uM zinc sulfate by CLSI based microdilution method; format: functional; conditions: dose 8 µg/ml; time 16-20 hrs
[15] = tested on: Klebsiella pneumoniae; experiment: Antibiotic adjuvant activity against meropenem-treated NDM-producing carbapenem resistant Klebsiella pneumoniae infected in BALB/c mouse sepsis model assessed as complete liver lobule structure with radially arranged hepatic cords and visible central veins at 10 mg/kg, ip in the presence of meropenem observed for 2 days by HE staining based assay; format: functional, organism-based; conditions: time 2.0 day
[16] = Acute toxicity in BALB/c mouse assessed as change in RBC count at 50 mg/kg, ip administered as single dose measured after 24 hrs; format: organism-based; conditions: in vivo
[17] = tested on: Klebsiella pneumoniae; experiment: (§1) Antibiotic adjuvant activity against meropenem-treated NDM-producing carbapenem resistant Klebsiella pneumoniae infected in BALB/c mouse sepsis model assessed as reduction of bacterial load in spleen at 10 mg/kg, ip in the presence of meropenem observed for 2 days; format: functional, organism-based; conditions: time 2.0 day
[18] = tested on: Klebsiella pneumoniae; experiment: Antibacterial activity against NDM-producing carbapenem resistant Klebsiella pneumoniae infected in BALB/c mouse sepsis model assessed as animal survival at 10 mg/kg, ip measured after 48 hrs; format: functional, organism-based
[19] = Acute toxicity in BALB/c mouse assessed as pathological changes in kidney at 50 mg/kg, ip administered as single dose measured after 24 hrs by hematoxylin and eosin staining based assay; format: organism-based; conditions: in vivo
[20] = tested on: Klebsiella pneumoniae; experiment: as §1, with “reduction in neutrophil infiltration in red pulp” for “reduction”, “of” for “of bacterial load in”, “days by HE staining based assay” for “days”; format: functional, organism-based; conditions: time 2.0 day
[21] = tested on: Klebsiella pneumoniae; experiment: Antibiotic adjuvant activity against meropenem-treated NDM-producing carbapenem resistant Klebsiella pneumoniae infected in BALB/c mouse sepsis model assessed as mouse rescue at 10 mg/kg, ip in the presence of meropenem measured after 48 hrs; format: functional
[22] = Acute toxicity in BALB/c mouse assessed as change in hemoglobin level at 50 mg/kg, ip administered as single dose measured after 24 hrs; format: organism-based; conditions: in vivo
[23] = tested on: Escherichia coli; experiment: Antibacterial activity against NDM-1 producing Escherichia coli DH5alpha assessed as decrease in bacterial growth incubated for 16 to 20 hrs by CLSI based microdilution method; format: functional; conditions: DH5[alpha], time 16-20 hrs
[24] = tested on: Escherichia coli; experiment: Antibacterial activity against VIM-1 producing Escherichia coli DH5alpha assessed as decrease in bacterial growth incubated for 16 to 20 hrs by CLSI based microdilution method; format: functional; conditions: DH5[alpha], time 16-20 hrs
[25] = tested on: Escherichia coli; experiment: Antibiotic adjuvant activity against meropenem-treated VIM-1 producing Escherichia coli DH5 alpha assessed as bacterial growth at 8 ug/ml incubated for 16 to 20 hrs in the presence of meropenem by CLSI based microdilution method; format: functional; conditions: dose 8 µg/ml; time 16-20 hrs
[26] = Toxicity in sheep RBC assessed as induction of hemolysis measured after 1 hr; format: tissue-based, Ovis aries, Erythrocyte; conditions: sheep red blood cells
[27] = tested on: Escherichia coli; experiment: Antibacterial activity against IMP-4 producing Escherichia coli DH5alpha assessed as decrease in bacterial growth incubated for 16 to 20 hrs by CLSI based microdilution method; format: functional; conditions: DH5[alpha], time 16-20 hrs
[28] = tested on: Escherichia coli; experiment: Antibiotic adjuvant activity against NDM-1 producing Escherichia coli DH5alpha assessed as potentiation of meropenem-induced antibacterial activity by measuring meropenem MIC at 16 ug/ml incubated for 16 to 20 hrs by checkerboard assay (reference value: 32 ug/ml); format: functional; conditions: DH5[alpha], dose 16 µg/ml, time 16-20 hrs
[29] = Acute toxicity in BALB/c mouse assessed as survival rate at 10 to 50 mg/kg, ip administered as single dose measured for 72 hrs; format: organism-based; conditions: in vivo, dose 10-50 mg/kg
[30] = Acute toxicity in BALB/c mouse assessed as change in creatinine level in serum at 50 mg/kg, ip administered as single dose measured after 24 hrs; format: organism-based; conditions: in vivo
[31] = tested on: Escherichia coli; experiment: Antibiotic adjuvant activity against NDM-1 producing Escherichia coli DH5alpha assessed as potentiation of meropenem-induced antibacterial activity incubated for 16 to 20 hrs by agar disc diffusion assay; format: functional, organism-based; conditions: DH5[alpha], time 16-20 hrs
[32] = Zinc chelation-dependent inhibition of IMP-1 (unknown origin) expressed in Escherichia coli DH5 alpha using imipenem as substrate preincubated with enzyme for 5 mins followed by substrate addition in the presence of zinc sulfate
[33] = tested on: Enterobacter cloacae; experiment: Antibacterial activity against MBL producing Enterobacter cloacae isolates assessed as inhibition of bacterial growth at 64 ug/ml incubated for 16 to 20 hrs by CLSI based microdilution method; format: functional, organism-based; conditions: dose 64.0 µg/ml, time 16-20 hrs
[34] = tested on: Escherichia coli; experiment: Synergistic antibacterial activity against NDM-1 producing Escherichia coli DH5alpha assessed as fractional inhibitory concentration index incubated for 16 to 20 hrs in presence of meropenem by checkerboard assay; format: functional, DH5[alpha]; conditions: time 16-20 hrs

SMILES	Activity [1]	Activity [2]	Activity [3]	Activity [4]	Activity [5]	Ki [6]	Activity [7]	Activity [8]	Activity [9]	Activity [10]	Activity [11]	fractional inhibitory concentration index (FICI) [12]	hemolysis at 1 h, 1024 microg/ml [13]	Activity [14]	Activity [15]	Activity [16]	Activity [17]	Activity [18]	Activity [19]	Activity [20]	other results
C[C@@H](C(=O)O)N(Cc1cccc(C(=O)O)n1)Cc1cccc(C(=O)O)n1	Non-Toxic	Non-Toxic	inactive	inactive	Active	5.83 µM	95%	inactive	Non-Toxic	inactive	95%	0.14	< 7%	100%	Active	Non-Toxic	Active	inactive	Non-Toxic	Active	Activity [21]: 83%; Activity [22]: Non-Toxic; MIC [23]: 128 µg/mL (≈ 356 µM); MIC [24]: 128 µg/mL (≈ 356 µM); Activity [25]: <10%; HC50 at 1 h [26]: > 1020 µg/mL; MIC [27]: 128 µg/mL (≈ 356 µM); MIC [28]: < 0.0312 µg/mL; survival at 72 h [29]: 100%; Activity [30]: Non-Toxic; Activity [31]: Active; Activity [32]: inactive; Activity [33]: inactive; fractional inhibitory concentration index (FICI) [34]: 0.07
C[C@H](C(=O)O)N(Cc1cccc(C(=O)O)n1)Cc1cccc(C(=O)O)n1	Non-Toxic	Non-Toxic	inactive	inactive	Active	6.16 µM	95%	inactive	Non-Toxic	inactive	95%	0.14	< 7%	100%	Active	Non-Toxic	Active	inactive	Non-Toxic	Active	Activity [21]: 83%; Activity [22]: Non-Toxic; MIC [23]: 128 µg/mL (≈ 356 µM); MIC [24]: 128 µg/mL (≈ 356 µM); Activity [25]: <10%; HC50 at 1 h [26]: > 1020 µg/mL; MIC [27]: 128 µg/mL (≈ 356 µM); MIC [28]: < 0.0312 µg/mL; survival at 72 h [29]: 100%; Activity [30]: Non-Toxic; Activity [31]: Active; Activity [32]: inactive; Activity [33]: inactive; fractional inhibitory concentration index (FICI) [34]: 0.07
